Measurements published in US12371463B2, “Methods and compositions for treatment of antibiotic-resistant bacterial infections” (University of Pittsburgh—Of the Commonwealth System of …, priority 2021, dated 2025).
Ends that are not written are not given here.

Key:
[1] = tested on: P. aeruginosa PA14 resistant clones (Sm, Wr, Sc); assay: Aggregation assay of resistant clones; assay type: cell-based; conditions: presence (4 μg/ml) versus absence of WLBU2, settled 24 hours at 4° C.
Description: To determine the aggregation ability of the 4 clones selected in the subinhibitory experiment, two replicates (R1 and R2) of each clone and the ancestral strain were grown in 5 mL of M9^+ for 24 hours at 37 degrees Celsius (° C.) in a roller drum at 200 revolutions per minute (RPM). After 24 hours, the whole culture of each clone was transferred to a 13 mm glass tube, and the tubes were allowed to settle over 24 hours at 4° C. without shaking. Replicate 1 (R1) of each clone was vortexed for 30 seconds and the optical density at 600 nanometers (OD600) was measured. From R2, 200 μl of the upper fraction was carefully taken without vortexing and the OD600 was measured. The aggregation percentage was estimated as […]. This experiment was performed with five replicates both in the absence and presence (4 μg/ml) of WLBU2 (SEQ ID NO: 1).

[2] = tested on: wild-type P. aeruginosa PA14; assay: Experimental evolution with extended subinhibitory exposure, population survival; assay type: cell-based
Description: In the third experiment, 5 planktonic populations of the non-hypermutant laboratorial strain P. aeruginosa PA14 were propagated under subinhibitory concentrations of WLBU2 (SEQ ID NO: 1) for 10 days. The populations that survived the treatment with 1×MIC of WLBU2 (SEQ ID NO: 1) were propagated for 2 days.
(§1) The planktonic propagations were serially passaged through 50 uL into 5 mL of M9+(dilution factor 100) which corresponds to approximately 6.66 generations per day. For the biofilm populations, a polystyrene bead (Polysciences, Inc., Warrington, PA) was transferred to fresh media containing 3 sterile beads. Each bead was rinsed in phosphate buffered saline (PBS) before the transfer to reduce the transfer planktonic cells. Each day, black and white marked beads were alternated, ensuring that the bacteria were growing on the bead for 24 hours, which corresponds to 6 to 7.5 generations/day.
Five planktonic populations of wild-type P. aeruginosa PA14 was propagated for 10 days under subinhibitory concentrations of WLBU2 (SEQ ID NO: 1), followed by 2 days at inhibitory concentrations. It was estimated the probability that any given nucleotide would be mutated during this regime was 0.74, with mean mutations per site of 1.52. […] Different colony morphologies were also detected within each population at the end of the experiment. […]

A. baumannii ATCC 17978 = assay: Experimental evolution in increasing antibiotic concentrations, population survival; assay type: cell-based
Description: Experimental evolution: Three independent evolution experiments were conducted. The ancestor strains were propagated in a rich medium modified from M9 (“M9+”) containing 0.37 millmolar (mM) CaCl2), 8.7 mM MgSO4, 42.2 mM Na2HPO4, 22 mM KH2PO4, 21.7 mM NaCl, 18.7 mM NH4Cl and 0.2 grams per liter (g/L) glucose and supplemented with 20 milliliters per liter (mL/L) MEM essential amino acids (Gibco 11130051), 10 mL/L MEM nonessential amino acids (Gibco 11140050), and 10 mL each trace mineral solution A, B, and C (Corning 25021-3Cl).
In the first experiment, a single clone of A. baumannii ATCC 17978 and P. aeruginosa PA14 were selected and propagated independently for 24 hours in M9^+ in the absence of antibiotics. Each population was then sub-cultured into 10 replicate populations. Ten of the populations (5 planktonic and 5 biofilm) were propagated every 24 hours in increasing concentrations of WLBU2 (SEQ ID NO: 1) starting at 0.5× the minimum inhibitory concentration (MIC). The WLBU2 (SEQ ID NO: 1) was doubled after 72 hours until no population survived the treatment. As a control, the same number of strains were propagated (both planktonically and in biofilm) in the absence of antibiotics (e.g., WLBU2 (SEQ ID NO: 1)). Ten populations (5 planktonic and 5 biofilm) were propagated in increasing convention of the cationic peptide polymyxin B. […]
(§2) For identifying mechanisms of resistance to WLBU2 (SEQ ID NO: 1), laboratory strains of A. baumannii ATCC 17978 and P. aeruginosa PA14 that had no prior exposure to WLBU2 (SEQ ID NO: 1) were propagated. […] Two factors that increase the likelihood of developing resistance were determined to be: i) the mutation supply determined by population size and the mutation rate and ii) the strength of selection imposed by the antibiotic. […] In Table 2, the mean mutations per nucleotide and the cumulative probability of a mutation per nucleotide knowing the mutation rate was calculated using the length of the chromosome, the number of divisions/days, and the length of the exposure before facing inhibitory concentrations of antibiotic (WLBU2 (SEQ ID NO: 1)). […]

[3] = tested on: ESKAPE (Enterococcus faecium, Staphylococcus aureus, Klebsiella pneumoniae, Acinetobacter baumannii, Pseudomonas aeruginosa and Enterobacter spp.) pathogens; conditions: in vitro and in vivo, even when protected by biofilms; cited from earlier work
P. aeruginosa PA14 = assay: Experimental evolution in increasing WLBU2 concentrations (previously used protocol), population survival; assay type: cell-based
Description: Experimental evolution: Three independent evolution experiments were conducted. The ancestor strains were propagated in a rich medium modified from M9 (“M9+”) containing 0.37 millmolar (mM) CaCl2), 8.7 mM MgSO4, 42.2 mM Na2HPO4, 22 mM KH2PO4, 21.7 mM NaCl, 18.7 mM NH4Cl and 0.2 grams per liter (g/L) glucose and supplemented with 20 milliliters per liter (mL/L) MEM essential amino acids (Gibco 11130051), 10 mL/L MEM nonessential amino acids (Gibco 11140050), and 10 mL each trace mineral solution A, B, and C (Corning 25021-3Cl). […]
as §2

[4] = tested on: P. aeruginosa (PA14 mutS:T114P); assay: Experimental evolution with hypermutator ancestor, population survival; assay type: cell-based
Text: In the second experiment, 5 planktonic populations and 5 biofilm populations under the same conditions described above, and a mutator strain of P. aeruginosa (PA14 mutS:T114P), obtained from Flynn et al. (“Evolution of Ecological Diversity in Biofilms of Pseudomonas aeruginosa by Altered Cyclic Diguanylate Signaling.” J. Bacteriol., 2016, 198:2608-2618). Additionally, 3 planktonic populations and 3 biofilm populations of the hypermutant strain in the absence of antibiotic (e.g., WLBU2 (SEQ ID NO: 1)) pressure were propagated. Hypermutant strains of bacteria, such as P. aeruginosa, can develop in patients, and may be characterized as having increased mutation rates, e.g., up to 1,000-fold, as compared to wild-type bacteria, such as P. aeruginosa (see, e.g., Maciá, Maria D et al. “Hypermutation is a key factor in development of multiple-antimicrobial resistance in Pseudomonas aeruginosa strains causing chronic lung infections.” Antimicrobial agents and chemotherapy vol. 49, 8 (2005): 3382-6).
as §1
Increasing mutation supply by using hypermutator strain promotes evolution resistance: A method to increase mutation supply during evolution experiments was to use an ancestral strain with a higher mutation rate. These mutator genotypes commonly evolve during chronic infections of P. aeruginosa and therefore relevant to antimicrobial resistance (AMR) evolution. […]

[5] = tested on: P. aeruginosa PA14 mutS mutator strain and populations evolved from it; assay: MIC by broth microdilution (CLSI), mutator ancestor and mutator-derived evolved populations; assay type: cell-based; conditions: FIG. 3A, mutS-derived populations and clones from WT ancestor, p<0.05 one-way ANOVA
Description: Phenotypic characterization: antimicrobial susceptibility and aggregation assay: The MIC to WLBU2 (SEQ ID NO: 1) and polymyxin B of the whole populations and 4 clones were determined by broth microdilution according to the Clinical and Laboratory Standards Instituted guidelines (CLSI 2019), in which each bacterial sample was tested in 2-fold increasing concentrations of each antibiotic. WLBU2 (SEQ ID NO: 1) was provided by Peptilogics (Peptilogics, Pittsburgh, PA) and polymyxin B was provided by Alfa Aesar (Alfa Aesar, Wardhill, Mass.). The experiments were performed with three replicates of the antibiotics.

[6] = tested on: P. aeruginosa and S. aureus biofilms; conditions: cited from earlier work
[7] = planktonic and biofilm, 3 days at 0.5x MIC before the MIC
[8] = five mutator populations per lifestyle

Row | Substance | aggregation of Sm colonies relative to WT [1] | Populations that survived entire experiment (%) ([2]; extended subinhibitory exposure, strain PA14, 10 days subinhibitory then 2 days inhibitory) | populations that survived the prolonged subinhibitory treatment ([2]; five planktonic populations, 10 days subinhibitory then 2 days inhibitory) | populations that survived exposure of the MIC (A. baumannii ATCC 17978; [7]) | effectiveness against ESKAPE pathogens [3] | populations that survived exposure of the MIC (P. aeruginosa PA14; [7]) | Populations that survived entire experiment (%) (P. aeruginosa PA14; previously used protocol, strain PA14, 3 days before inhibitory concentrations) | biofilm populations that survived the treatment [4, 8] | planktonic populations that survived the treatment [4, 8] | Populations that survived entire experiment (%) ([4]; hypermutator ancestor PA14 mutS: T114P, 3 days before inhibitory concentrations) | resistance level (MIC) of evolved populations versus WT [5] | activity against biofilms [6] | biofilm populations that survived in 4-times the MIC (A. baumannii ATCC 17978; biofilm lifestyle, increasing concentrations over 12 days) | planktonic populations that survived in 4-times the MIC (A. baumannii ATCC 17978; planktonic lifestyle, 5 populations, increasing concentrations over 12 days)
1 | RRWVRRVRRVWRRVVRVVRRWVRR [WLBU2] | only clustered more in the presence of the peptide | 40% | two | no populations | highly effective | no populations | 0% | three | Two | 50% | significantly exceeded WT resistance | high activity | – | –
2 | polymyxin B | – | – | – | – | – | – | – | – | – | – | – | – | four out of the five | all
